Laboratory results published in ChEMBL document CHEMBL3885881, “DrugMatrix”.

Species on record: Rattus norvegicus
Test: DrugMatrix - Regimen: Daily Repeat
Format: toxicity, organism-based, Sprague-Dawley
Parameters: regimen Daily Repeat, gender Male, age 6-8 weeks
Details: in vivo, po, route oral GAVAGE, vehicle .5 % CMC; for BASOPHIL / EOSINOPHIL / ERYTHROCYTE COUNT / HEMATOCRIT / HEMOGLOBIN / LEUKOCYTE COUNT / LYMPHOCYTE / MEAN CORPUSCULAR HEMOGLOBIN / MEAN CORPUSCULAR HEMOGLOBIN CONCENTRATION / MEAN CORPUSCULAR VOLUME / MONOCYTE / NEUTROPHIL / PLATELET COUNT / ABSOLUTE BASOPHIL / ABSOLUTE EOSINOPHIL / ABSOLUTE LYMPHOCYTE / ABSOLUTE MONOCYTE / ABSOLUTE SEGMENTED NEUTROPHIL / NUCLEATED RED BLOOD CELLS: tissue Blood
[1] = 0 mg/kg, 72 h, dose level Control, time 3 day
[2] = 0 mg/kg, 72 h, tissue Plasma, dose level Control, time 3 day
[3] = 0 mg/kg, 120 h, dose level Control, time 5 day
[4] = 0 mg/kg, 120 h, tissue Plasma, dose level Control, time 5 day
[5] = 7 mg/kg, 72 h, dose level Low, time 3 day
[6] = 7 mg/kg, 72 h, tissue Plasma, dose level Low, time 3 day
[7] = 7 mg/kg, 120 h, dose level Low, time 5 day
[8] = 7 mg/kg, 120 h, tissue Plasma, dose level Low, time 5 day

SMILES: NC1=NC(=O)C(c2ccccc2)O1 (stereo unspecified) [PEMOLINE]
- BASOPHIL [1]: 0%
- EOSINOPHIL [1]: 0.33%
- ERYTHROCYTE COUNT [1]: 6.03 x10E6/uL
- HEMATOCRIT [1]: 38.8%
- HEMOGLOBIN [1]: 14.26 G/DL
- LEUKOCYTE COUNT [1]: 10.64 x10E3/uL
- LYMPHOCYTE [1]: 83.33%
- MEAN CORPUSCULAR HEMOGLOBIN [1]: 23.64 pg
- MEAN CORPUSCULAR HEMOGLOBIN CONCENTRATION [1]: 36.74 G/DL
- MEAN CORPUSCULAR VOLUME [1]: 64.32 fL
- MONOCYTE [1]: 3.33%
- NEUTROPHIL [1]: 13%
- PLATELET COUNT [1]: 1264.4 x10E3/uL
- ALANINE AMINOTRANSFERASE [2]: 38.83 u/L
- ALBUMIN [2]: 3.55 G/DL
- ALKALINE PHOSPHATASE [2]: 368.33 u/L
- ASPARTATE AMINOTRANSFERASE [2]: 66.17 u/L
- BLOOD UREA NITROGEN [2]: 15.67 mg/dL
- CHLORIDE [2]: 104.33 MEQ/L
- CHOLESTEROL [2]: 76.5 mg/dL
- CREATINE PHOSPHOKINASE [2]: 166.83 u/L
- CREATININE [2]: 0.52 mg/dL
- GLUCOSE [2]: 173.17 mg/dL
- PHOSPHORUS [2]: 11.68 mg/dL
- POTASSIUM [2]: 6.43 MEQ/L
- SODIUM [2]: 149.5 MEQ/L
- TOTAL PROTEIN [2]: 5.93 G/DL
- BASOPHIL [3]: 0%
- EOSINOPHIL [3]: 0%
- ERYTHROCYTE COUNT [3]: 5.88 x10E6/uL
- HEMATOCRIT [3]: 37.87%
- HEMOGLOBIN [3]: 14.48 G/DL
- LEUKOCYTE COUNT [3]: 12.43 x10E3/uL
- LYMPHOCYTE [3]: 84.17%
- MEAN CORPUSCULAR HEMOGLOBIN [3]: 24.65 pg
- MEAN CORPUSCULAR HEMOGLOBIN CONCENTRATION [3]: 38.25 G/DL
- MEAN CORPUSCULAR VOLUME [3]: 64.47 fL
- MONOCYTE [3]: 4.33%
- NEUTROPHIL [3]: 11.5%
- PLATELET COUNT [3]: 1182.33 x10E3/uL
- ALANINE AMINOTRANSFERASE [4]: 38.67 u/L
- ALBUMIN [4]: 3.55 G/DL
- ALKALINE PHOSPHATASE [4]: 342.5 u/L
- ASPARTATE AMINOTRANSFERASE [4]: 63.33 u/L
- BLOOD UREA NITROGEN [4]: 15.5 mg/dL
- CHLORIDE [4]: 104 MEQ/L
- CHOLESTEROL [4]: 75.5 mg/dL
- CREATINE PHOSPHOKINASE [4]: 142.5 u/L
- CREATININE [4]: 0.62 mg/dL
- GLUCOSE [4]: 165.17 mg/dL
- PHOSPHORUS [4]: 10.87 mg/dL
- POTASSIUM [4]: 6.85 MEQ/L
- SODIUM [4]: 150.17 MEQ/L
- TOTAL PROTEIN [4]: 5.93 G/DL
- ABSOLUTE BASOPHIL [5]: 0 CELLS/uL
- ABSOLUTE EOSINOPHIL [5]: 0 CELLS/uL
- ABSOLUTE LYMPHOCYTE [5]: 8380 CELLS/uL
- ABSOLUTE MONOCYTE [5]: 87.67 CELLS/uL
- ABSOLUTE SEGMENTED NEUTROPHIL [5]: 732.33 CELLS/uL
- BASOPHIL [5]: 0%
- EOSINOPHIL [5]: 0%
- ERYTHROCYTE COUNT [5]: 5.42 x10E6/uL
- HEMATOCRIT [5]: 34%
- HEMOGLOBIN [5]: 13.77 G/DL
- LEUKOCYTE COUNT [5]: 9.2 x10E3/uL
- LYMPHOCYTE [5]: 91.33%
- MEAN CORPUSCULAR HEMOGLOBIN [5]: 25.43 pg
- MEAN CORPUSCULAR HEMOGLOBIN CONCENTRATION [5]: 40.5 G/DL
- MEAN CORPUSCULAR VOLUME [5]: 62.87 fL
- MONOCYTE [5]: 1%
- NEUTROPHIL [5]: 7.67%
- NUCLEATED RED BLOOD CELLS [5]: 0 /100WBC
- PLATELET COUNT [5]: 1245 x10E3/uL
- ALANINE AMINOTRANSFERASE [6]: 52 u/L
- ALBUMIN [6]: 4.3 G/DL
- ALKALINE PHOSPHATASE [6]: 415.33 u/L
- ASPARTATE AMINOTRANSFERASE [6]: 90 u/L
- BLOOD UREA NITROGEN [6]: 14 mg/dL
- CARBON DIOXIDE [6]: 32 mmol/L
- CHLORIDE [6]: 99.33 MEQ/L
- CHOLESTEROL [6]: 78.67 mg/dL
- CREATINE PHOSPHOKINASE [6]: 330.33 u/L
- CREATININE [6]: 0.25 mg/dL
- GLUCOSE [6]: 141.33 mg/dL
- LACTATE DEHYDROGENASE [6]: 168.67 u/L
- LIPASE [6]: 10.33 u/L
- PHOSPHORUS [6]: 11.6 mg/dL
- POTASSIUM [6]: 6.56 MEQ/L
- SODIUM [6]: 145.47 MEQ/L
- TOTAL BILIRUBIN [6]: 0.2 mg/dL
- TOTAL PROTEIN [6]: 6.2 G/DL
- URIC ACID [6]: 1.03 mg/dL
- ABSOLUTE BASOPHIL [7]: 0 CELLS/uL
- ABSOLUTE EOSINOPHIL [7]: 0 CELLS/uL
- ABSOLUTE LYMPHOCYTE [7]: 13324.33 CELLS/uL
- ABSOLUTE MONOCYTE [7]: 202.67 CELLS/uL
- ABSOLUTE SEGMENTED NEUTROPHIL [7]: 1839.67 CELLS/uL
- BASOPHIL [7]: 0%
- EOSINOPHIL [7]: 0%
- ERYTHROCYTE COUNT [7]: 5.15 x10E6/uL
- HEMATOCRIT [7]: 31.77%
- HEMOGLOBIN [7]: 12.83 G/DL
- LEUKOCYTE COUNT [7]: 15.37 x10E3/uL
- LYMPHOCYTE [7]: 86.67%
- MEAN CORPUSCULAR HEMOGLOBIN [7]: 24.93 pg
- MEAN CORPUSCULAR HEMOGLOBIN CONCENTRATION [7]: 40.47 G/DL
- MEAN CORPUSCULAR VOLUME [7]: 61.63 fL
- MONOCYTE [7]: 1.33%
- NEUTROPHIL [7]: 12%
- NUCLEATED RED BLOOD CELLS [7]: 0 /100WBC
- PLATELET COUNT [7]: 1293.33 x10E3/uL
- ALANINE AMINOTRANSFERASE [8]: 55.67 u/L
- ALBUMIN [8]: 4.1 G/DL
- ALKALINE PHOSPHATASE [8]: 349 u/L
- ASPARTATE AMINOTRANSFERASE [8]: 73.67 u/L
- BLOOD UREA NITROGEN [8]: 18.33 mg/dL
